Values joined by “and” are separate entries in the source; they are usually repeats but may differ in a detail not shown here. Equal entries are not always repeated. Inconclusive results and toxic doses are left out.
Tested on: P388 leukemia ip, CD2F1 mice, survival T/C
Test: NCI In Vivo Anticancer Drug Screen. Data for tumor model P388 Leukemia (intraperitoneal) in CD2F1 (CDF1) mice
Conditions: endpoint: median survival time, higher = longer survival
In short: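 Mice carrying the transplanted tumor received test compound or vehicle. Survival was recorded in each group, and the value is the treated-group measurement divided by that of the vehicle-treated control group.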

[1] = dose: 50.0 mg/kg/injection, schedule: Q01DX005 (ip), vehicle: Klucel (hydroxypropylcellulose) (HPC)
[2] = dose: 100.0 mg/kg/injection, schedule: Q01DX005 (ip), vehicle: Klucel (hydroxypropylcellulose) (HPC)
[3] = dose: 200.0 mg/kg/injection, schedule: Q01DX005 (ip), vehicle: Klucel (hydroxypropylcellulose) (HPC)
[4] = dose: 100.0 mg/kg/injection, schedule: Q01DX009 (ip), vehicle: saline
[5] = dose: 200.0 mg/kg/injection, schedule: Q01DX009 (ip), vehicle: saline
[6] = dose: 60.0 mg/kg/injection, schedule: Q01DX005 (ip), vehicle: saline with Tween-80
[7] = dose: 120.0 mg/kg/injection, schedule: Q01DX005 (ip), vehicle: saline with Tween-80
[8] = dose: 240.0 mg/kg/injection, schedule: Q01DX005 (ip), vehicle: saline with Tween-80
[9] = dose: 50.0 mg/kg/injection, schedule: Q01DX005 (ip), vehicle: saline with Tween-80
[10] = dose: 100.0 mg/kg/injection, schedule: Q01DX005 (ip), vehicle: saline with Tween-80
[11] = dose: 25.0 mg/kg/injection, schedule: Q01DX009 (ip), vehicle: saline with Tween-80
[12] = dose: 50.0 mg/kg/injection, schedule: Q01DX009 (ip), vehicle: Klucel (hydroxypropylcellulose) (HPC)
[13] = dose: 100.0 mg/kg/injection, schedule: Q01DX009 (ip), vehicle: Klucel (hydroxypropylcellulose) (HPC)
[14] = dose: 50.0 mg/kg/injection, schedule: Q01DX009 (ip), vehicle: saline
[15] = dose: 200.0 mg/kg/injection, schedule: Q01DX009 (ip), vehicle: Klucel (hydroxypropylcellulose) (HPC)
[16] = dose: 100.0 mg/kg/injection, schedule: Q01DX009 (ip), vehicle: saline with Tween-80

## Oc1ccccc1/C=N/NC(=S)NC1CC2C=CC1C2 (stereo unspecified)
dose: 12.5 mg/kg/injection, schedule: Q01DX009 (ip), vehicle: olive oil, sesame oil, peanut oil
  T/C: 100 % of control
dose: 25.0 mg/kg/injection, schedule: Q01DX009 (ip), vehicle: olive oil, sesame oil, peanut oil
  T/C: 102 % of control
dose: 50.0 mg/kg/injection, schedule: Q01DX009 (ip), vehicle: olive oil, sesame oil, peanut oil
  T/C: 97 % of control
dose: 100.0 mg/kg/injection, schedule: Q01DX009 (ip), vehicle: olive oil, sesame oil, peanut oil
  T/C: 97 % of control
dose: 200.0 mg/kg/injection, schedule: Q01DX009 (ip), vehicle: olive oil, sesame oil, peanut oil
  T/C: 102 % of control
dose: 400.0 mg/kg/injection, schedule: Q01DX009 (ip), vehicle: olive oil, sesame oil, peanut oil
  T/C: 97 % of control

## CN(C)C(=S)N/N=C/c1ccccn1
dose: 6.25 mg/kg/injection, schedule: Q01DX005 (ip), vehicle: Klucel (hydroxypropylcellulose) (HPC)
  T/C: 115 % of control
dose: 12.5 mg/kg/injection, schedule: Q01DX005 (ip), vehicle: Klucel (hydroxypropylcellulose) (HPC)
  T/C: 115 % of control

## COc1c(I)c2c(c([N+](=O)[O-])c1OC)C(=O)OC2C1c2c(cc3c(c2OC)OCO3)CCN1C (stereo unspecified)
dose: 25.0 mg/kg/injection, schedule: Q01DX005 (ip), vehicle: Klucel (hydroxypropylcellulose) (HPC)
  T/C: 92 % of control
[1]
  T/C: 101 % of control
[2]
  T/C: 96 % of control
[3]
  T/C: 91 % of control

## CCNc1nc(Cl)nc(NCC)n1
[4]
  T/C: 98 % of control
[5]
  T/C: 91 % of control
dose: 400.0 mg/kg/injection, schedule: Q01DX009 (ip), vehicle: saline
  T/C: 94 % of control

## O=C(O)C(c1ccccc1)c1cccc(C(C(=O)O)c2ccccc2)n1 (stereo unspecified)
[6]
  T/C: 105 % of control
[7]
  T/C: 100 % of control
[8]
  T/C: 102 % of control

## N#Cc1ccc(C(=O)C=[N+]=[N-])cc1
dose: 100.0 mg/kg/injection, schedule: Q04DX003 (ip), vehicle: Klucel (hydroxypropylcellulose) (HPC)
  T/C: 109 % of control
dose: 200.0 mg/kg/injection, schedule: Q04DX003 (ip), vehicle: Klucel (hydroxypropylcellulose) (HPC)
  T/C: 93 % of control
dose: 400.0 mg/kg/injection, schedule: Q04DX003 (ip), vehicle: Klucel (hydroxypropylcellulose) (HPC)
  T/C: 100 % of control

## C1CN1P1(N2CC2)=NP(N2CC2)(N2CC2)=NP(N2CC2)(N2CC2)=N1
dose: 5.0 mg/kg/injection, schedule: Q01DX009 (ip), vehicle: saline
  T/C: 231 % of control
dose: 10.0 mg/kg/injection, schedule: Q01DX009 (ip), vehicle: saline
  T/C: 222 % of control
dose: 20.0 mg/kg/injection, schedule: Q01DX009 (ip), vehicle: saline
  T/C: 122 % of control

## CCOC(=O)C1(C(=O)OCC)C(C)CC(=O)N1c1ccccc1OC (stereo unspecified)
[6]
  T/C: 104 % of control
[7]
  T/C: 100 % of control
[8]
  T/C: 95 % of control

## CC1(C)Cc2c([nH]c3ccccc3c2=O)-c2ccccc21
[1]
  T/C: 96 % of control
[2]
  T/C: 100 % of control
[3]
  T/C: 103 % of control

## Cc1c(O)ccc2c1OCC(c1ccc(Cl)cc1)C2 (stereo unspecified)
[6]
  T/C: 104 % of control
[7]
  T/C: 91 % of control
[8]
  T/C: 92 % of control

## C/C(=N\NC(=S)Nc1ccc(C(=O)O)cc1)c1ccc2ccccc2n1
[9]
  T/C: 105 % of control
[10]
  T/C: 114 % of control

## CCOC(=O)C1Cc2c([nH]c(=O)[nH]c2=O)OC1c1cccc(Cl)c1 (stereo unspecified)
dose: 3.12 mg/kg/injection, schedule: Q01DX009 (ip), vehicle: saline with Tween-80
  T/C: 94 % of control
dose: 6.25 mg/kg/injection, schedule: Q01DX009 (ip), vehicle: saline with Tween-80
  T/C: 93 % of control
dose: 12.5 mg/kg/injection, schedule: Q01DX009 (ip), vehicle: saline with Tween-80
  T/C: 96 % of control
[11]
  T/C: 100 % of control

## O=C(O)c1ccc2nc(-c3ccccc3)cn2c1
dose: 12.5 mg/kg/injection, schedule: Q04DX003 (ip), vehicle: saline with Tween-80
  T/C: 98 % of control
dose: 25.0 mg/kg/injection, schedule: Q04DX003 (ip), vehicle: saline with Tween-80
  T/C: 98 % of control
dose: 50.0 mg/kg/injection, schedule: Q04DX003 (ip), vehicle: saline with Tween-80
  T/C: 101 % of control and 105 % of control
dose: 100.0 mg/kg/injection, schedule: Q04DX003 (ip), vehicle: saline with Tween-80
  T/C: 106 % of control

## O=C(CCCCCCCCCCC(=O)NO)NO
[6]
  T/C: 105 % of control
[7]
  T/C: 106 % of control
[8]
  T/C: 110 % of control

## CCn1c(=O)c2n[nH]nc2n(CCO)c1=O
[12]
  T/C: 97 % of control
[13]
  T/C: 100 % of control

## CCOC(=O)/C(N)=N/N=Nc1ccc([N+](=O)[O-])cc1
[14]
  T/C: 103 % of control
[4]
  T/C: 103 % of control

## C=C(C)C(=O)O[C@H]1[C@H]2[C@H](OC(=O)[C@H]2C)[C@H](O)[C@@H](C)[C@@H]2C=CC(=O)[C@]21C
dose: 7.5 mg/kg/injection, schedule: Q01DX009 (ip), vehicle: saline with Tween-80
  T/C: 118 % of control
dose: 15.0 mg/kg/injection, schedule: Q01DX009 (ip), vehicle: saline with Tween-80
  T/C: 113 % of control
dose: 30.0 mg/kg/injection, schedule: Q01DX009 (ip), vehicle: saline with Tween-80
  T/C: 124 % of control

## BrCc1ccccc1C[P+](c1ccccc1)(c1ccccc1)c1ccccc1
dose: 1.5 mg/kg/injection, schedule: Q01DX009 (ip), vehicle: saline
  T/C: 113 % of control
dose: 3.13 mg/kg/injection, schedule: Q01DX009 (ip), vehicle: saline
  T/C: 104 % of control

## Nc1nc2c(ncn2C2OC(CO)C(O)C2O)c(=O)[nH]1.[Cl-].[Cl-].[NH2-].[NH2-].[Pt+4] (stereo unspecified)
dose: 2.0 mg/kg/injection, schedule: Q01DX009 (ip), vehicle: saline
  T/C: 118 % of control
dose: 4.0 mg/kg/injection, schedule: Q01DX009 (ip), vehicle: saline
  T/C: 122 % of control
dose: 8.0 mg/kg/injection, schedule: Q01DX009 (ip), vehicle: saline
  T/C: 172 % of control and 178 % of control
dose: 16.0 mg/kg/injection, schedule: Q01DX009 (ip), vehicle: saline
  T/C: 216 % of control and 238 % of control
dose: 32.0 mg/kg/injection, schedule: Q01DX009 (ip), vehicle: saline
  T/C: 93 % of control

## C/C(=N\NC(N)=S)c1ccccc1O
[12]
  T/C: 99 % of control
[13]
  T/C: 111 % of control
[15]
  T/C: 102 % of control

## Nc1ccc(-c2ccc(N)cc2)cc1
[16]
  T/C: 90 % of control
dose: 200.0 mg/kg/injection, schedule: Q01DX009 (ip), vehicle: saline with Tween-80
  T/C: 100 % of control
dose: 400.0 mg/kg/injection, schedule: Q01DX009 (ip), vehicle: saline with Tween-80
  T/C: 95 % of control

## Cc1nn(Cc2ccccc2)c(C)c1-c1c(C)nn(Cc2ccccc2)c1C
[1]
  T/C: 104 % of control
[2]
  T/C: 103 % of control
[3]
  T/C: 99 % of control

## CCCCN(CCCC)CC(O)c1c(Cl)c2ccccc2c2ccccc12 (stereo unspecified)
[11]
  T/C: 100 % of control
dose: 50.0 mg/kg/injection, schedule: Q01DX009 (ip), vehicle: saline with Tween-80
  T/C: 93 % of control
[16]
  T/C: 100 % of control

## O=CNc1ccn[nH]1
[14]
  T/C: 106 % of control
[4]
  T/C: 101 % of control
[5]
  T/C: 100 % of control

## CCCCCCCCCC(=O)C1C(c2ccccc2)CC(=O)C(CCCCCCCC)C1c1ccccc1 (stereo unspecified)
dose: 12.5 mg/kg/injection, schedule: Q01DX005 (ip), vehicle: saline with Tween-80
  T/C: 87 % of control
dose: 25.0 mg/kg/injection, schedule: Q01DX005 (ip), vehicle: saline with Tween-80
  T/C: 98 % of control
[9]
  T/C: 109 % of control and 93 % of control
[10]
  T/C: 105 % of control
dose: 200.0 mg/kg/injection, schedule: Q01DX005 (ip), vehicle: saline with Tween-80
  T/C: 115 % of control

## O=C1/C(=C/c2ccc(Br)cc2)CCc2ccccc21
[12]
  T/C: 105 % of control
[13]
  T/C: 111 % of control
[15]
  T/C: 105 % of control

## COc1cccc(/C=N\NC(=O)CNC(=O)Nc2ccc(Cl)c(Cl)c2)c1OC
dose: 15.0 mg/kg/injection, schedule: Q01DX005 (ip), vehicle: saline with Tween-80
  T/C: 91 % of control
dose: 30.0 mg/kg/injection, schedule: Q01DX005 (ip), vehicle: saline with Tween-80
  T/C: 88 % of control
[8]
  T/C: 95 % of control

## Cc1cc(NS(=O)(=O)c2ccc(NCc3c4ccccc4nc4cc(Cl)ccc34)cc2)no1
[6]
  T/C: 94 % of control
[7]
  T/C: 94 % of control
[8]
  T/C: 94 % of control

## CCOP(=O)(O)C1CCCC(C)[N-]1.CCOP(=O)(O)C1CCCC(C)[N-]1.[Cu+2] (stereo unspecified)
dose: 12.5 mg/kg/injection, schedule: Q04DX003 (ip), vehicle: Klucel (hydroxypropylcellulose) (HPC)
  T/C: 101 % of control
dose: 25.0 mg/kg/injection, schedule: Q04DX003 (ip), vehicle: Klucel (hydroxypropylcellulose) (HPC)
  T/C: 112 % of control

— PubChem BioAssay AID330 (DTP/NCI, 2004)
